Marks after values point to notes of the source that are not given here.
Assays:
Format in all cases: in vivo
[1] = system: mice (C3H strain); test: Ear thickness (primary skin irritancy) after topical application, Example 1; conditions: for Ear thickness compared to ethanol: 1% in ethanol
Method: The following example was performed to determine if pyrethroid compounds cause skin irritation (as indicated by ear thickness in mice). Skin irritants may contribute to promoting hair growth.
Prior to the experiment, ear thickness of mice (C3H strain, female, 16 weeks of age, n=3/group) was measured with a thickness gage (Mitsutoyo Corp.). After measuring ear thickness of both ears, 10 μL of ethanol was applied on left ear and 10 μL of a pyrethroid solution (1% pyrethroid compound in ethanol) was applied to the right ear. Ear thickness was measured for three consecutive days after administration.

[2] = system: C3H strain mice; test: Hair growth on clipped back skin, repeat with minoxidil control, Example 5; set-up: Level of hair growth (unaided visual inspection): scale not given here; conditions: for Promoting hair growth: concentrations of 0.1% and 1% in ethanol solutions
Method: The ability of topical administration of pyrethroid compounds to promote hair growth was assessed in female C3H strain mice (10 weeks old; n=5/group). Hair on the back skin of the mice was clipped carefully with an electric clipper. 5 μL/cm^2 of the five compositions tested in the examples above were applied to the mice daily. The level of hair growth at the applied skin areas were evaluated by unaided visual inspection at the indicated time. Cyclosporin A was used as a control.
The experiment described in Example 4 was repeated with a commercially available hair growth-promoting compound (5% minoxidil) as a control.

[3] = system: C3H strain mice; test: Hair growth on clipped back skin, topical daily application, Example 4; set-up: Level of hair growth (unaided visual inspection): scale not given here; conditions: for Promoting hair growth: 1% topical daily; for Level of hair growth (unaided visual inspection): 1%, 5 μL/cm^2 daily, n=5/group
Method: The ability of topical administration of pyrethroid compounds to promote hair growth was assessed in female C3H strain mice (10 weeks old; n=5/group). Hair on the back skin of the mice was clipped carefully with an electric clipper. 5 μL/cm^2 of the five compositions tested in the examples above were applied to the mice daily. The level of hair growth at the applied skin areas were evaluated by unaided visual inspection at the indicated time.

[4] = system: mice of the C3H strain; test: Skin irritancy on clipped back skin, visual score, Example 3; conditions: three repeated topical administration, 1% in ethanol
Method: This experiment was conducted to test the skin irritancy of the compositions of this invention on hair-growing areas of test subjects, i.e., female mice (10 weeks old) of the C3H strain (n=5 group). After clipping the hair of the back skin of mice with an electric clipper, 5 μL/cm^2 of each four composition tested in Examples 1 and 2 (at a concentration of 1% in an ethanol solution) were applied. The application was administered once a day, for 3 consecutive days. Skin irritation was evaluated by unaided visual inspection at the end of the third day.

[5] = system: mice (Sencar strain); test: Ear thickness after TPA plus pyrethroid application, Example 2
Method: Another ear thickness experiment was performed. Ear thickness of mice (Sencar strain, female, 10 weeks of age, n =3/group) was measured with a thickness gage (Mitsutoyo Corp.). After measuring the thickness of both ears at the beginning of the experiment, 20 μL of 12-O-tetradecanoyl-phorbol 13-acetate (TPA) at a concentration of 10^−4 M in acetone was applied on both ears, followed by the application of 10 μL of ethanol on the left ears and 10 μL of the four compositions tested in Example 1 on the right ears (at a concentration of 1% of pyrethroid compound in ethanol solution). Again, ear thickness was monitored over three consecutive days following administration of the compositions.

[6] = day 0 (before application), C3H female mice, n=3
[7] = day 1, 10 μL of 1% in ethanol on right ear, C3H mice
[8] = day 2, 10 μL of 1% in ethanol on right ear, C3H mice
[9] = day 3, 10 μL of 1% in ethanol on right ear, C3H mice
[10] = day 0 (before application), Sencar female mice, n=3
[11] = day 1, 20 μL TPA 10^−4 M in acetone then 10 μL of 1% in ethanol, Sencar mice
[12] = day 2, 20 μL TPA 10^−4 M in acetone then 10 μL of 1% in ethanol, Sencar mice
[13] = day 3, 20 μL TPA 10^−4 M in acetone then 10 μL of 1% in ethanol, Sencar mice

In the case of `CC1(C)C(C=C(Cl)Cl)C1C(=O)OC(C#N)c1cccc(Oc2ccccc2)c1` (stereo not drawn) [Cypermethrin, cypermethrin], the “Ear thickness compared to ethanol” value ([1]; C3H mice) is reported as “did not increase ear thickness”, the Right ear thickness [1, 6] is reported as 27.7 ×0.01 mm and the Right ear thickness [1, 7] is reported as 27.7 ×0.01 mm. For the same compound, the Right ear thickness [1, 8] was 27.3 ×0.01 mm, the Right ear thickness [1, 9] was 28.0 ×0.01 mm and the “Level of hair growth (unaided visual inspection)” value (from here on “Level of hair growth”) ([2]; 0.01%, Week 1) was 0. For the same compound, the “Level of hair growth” value ([2]; 0.01%, Week 2) was 0, the “Level of hair growth” value ([2]; 0.01%, Week 3) was 0 and the “Level of hair growth” value ([2]; 0.01%, Week 4) was 0. For the same compound, the “Level of hair growth” value ([2]; 0.01%, Week 5) was 0, the “Level of hair growth” value ([2]; 0.01%, Week 6) was 0 and the “Level of hair growth” value ([2]; 0.1%, Week 1) was 0. The “Level of hair growth” value ([2]; 0.1%, Week 2) was 0, the “Level of hair growth” value ([2]; 0.1%, Week 3) was 5 and the “Level of hair growth” value ([2]; 0.1%, Week 4) was 5. The “Level of hair growth” value ([2]; 0.1%, Week 5) was 5, the “Level of hair growth” value ([2]; 0.1%, Week 6) was 5 and the “Level of hair growth” value ([2]; 1%, Week 1) was 0. For the same compound, the “Level of hair growth” value ([2]; 1%, Week 2) was 0, the “Level of hair growth” value ([2]; 1%, Week 3) was 5 and the “Level of hair growth” value ([2]; 1%, Week 4) was 5. For the same compound, the “Level of hair growth” value ([2]; 1%, Week 5) was 5, the “Level of hair growth” value ([2]; 1%, Week 6) was 5 and the Promoting hair growth [2] was “effective in promoting hair growth”. For the same compound, the Promoting hair growth [3] was “effective in promoting hair growth”, the “Level of hair growth” value ([3]; Day 7) was 0 and the “Level of hair growth” value ([3]; Day 14) was 0. For the same compound, the “Level of hair growth” value ([3]; Day 19) was 2, the “Level of hair growth” value ([3]; Day 29) was 4 and the “Level of hair growth” value ([3]; Day 36) was 5. The “Skin irritation (redness)” value [4] was “failed to cause skin irritation”, the Right ear thickness [5, 10] was 24.0 ×0.01 mm and the Right ear thickness [5, 11] was 26.7 ×0.01 mm. The Right ear thickness [5, 12] was 28.3 ×0.01 mm and the Right ear thickness [5, 13] was 27.3 ×0.01 mm.

In the case of `CC1(C)[C@H](C(=O)O[C@H](C#N)c2cccc(Oc3ccccc3)c2)[C@@H]1C=C(Br)Br` [Deltamethrin, deltamethrin], the “Ear thickness compared to ethanol” value ([1]; C3H mice) is reported as “did not increase ear thickness”, the Right ear thickness [1, 6] is reported as 27.0 ×0.01 mm and the Right ear thickness [1, 7] is reported as 27.3 ×0.01 mm. For the same compound, the Right ear thickness [1, 8] was 27.3 ×0.01 mm, the Right ear thickness [1, 9] was 28.0 ×0.01 mm and the “Level of hair growth” value ([2]; 0.01%, Week 1) was 0. The “Level of hair growth” value ([2]; 0.01%, Week 2) was 0, the “Level of hair growth” value ([2]; 0.01%, Week 3) was 1 and the “Level of hair growth” value ([2]; 0.01%, Week 4) was 1. For the same compound, the “Level of hair growth” value ([2]; 0.01%, Week 5) was 1, the “Level of hair growth” value ([2]; 0.01%, Week 6) was 3 and the “Level of hair growth” value ([2]; 0.1%, Week 1) was 0. The “Level of hair growth” value ([2]; 0.1%, Week 2) was 0, the “Level of hair growth” value ([2]; 0.1%, Week 3) was 5 and the “Level of hair growth” value ([2]; 0.1%, Week 4) was 5. The “Level of hair growth” value ([2]; 0.1%, Week 5) was 5, the “Level of hair growth” value ([2]; 0.1%, Week 6) was 5 and the “Level of hair growth” value ([2]; 1%, Week 1) was 0. For the same compound, the “Level of hair growth” value ([2]; 1%, Week 2) was 2, the “Level of hair growth” value ([2]; 1%, Week 3) was 5 and the “Level of hair growth” value ([2]; 1%, Week 4) was 5. For the same compound, the “Level of hair growth” value ([2]; 1%, Week 5) was 5, the “Level of hair growth” value ([2]; 1%, Week 6) was 5 and the Promoting hair growth [2] was “effective in promoting hair growth”. The Promoting hair growth [3] was “effective in promoting hair growth”, the “Level of hair growth” value ([3]; Day 7) was 0 and the “Level of hair growth” value ([3]; Day 14) was 0. For the same compound, the “Level of hair growth” value ([3]; Day 19) was 1, the “Level of hair growth” value ([3]; Day 29) was 5 and the “Level of hair growth” value ([3]; Day 36) was 5. The “Skin irritation (redness)” value [4] was “failed to cause skin irritation”, the Right ear thickness [5, 10] was 26.0 ×0.01 mm and the Right ear thickness [5, 11] was 27.3 ×0.01 mm. It also gave a Right ear thickness [5, 12] of 29.0 ×0.01 mm and a Right ear thickness [5, 13] of 28.0 ×0.01 mm.

For `CC(C)C(C(=O)OC(C#N)c1cccc(Oc2ccccc2)c1)c1ccc(Cl)cc1` (stereo not drawn) [Fenvalerate, fenvalerate], the “Ear thickness compared to ethanol” value ([1]; C3H mice) was “did not increase ear thickness”, the Right ear thickness [1, 6] was 27.3 ×0.01 mm and the Right ear thickness [1, 7] was 28.0 ×0.01 mm. The Right ear thickness [1, 8] was 28.0 ×0.01 mm, the Right ear thickness [1, 9] was 27.0 ×0.01 mm and the “Level of hair growth” value ([2]; 0.01%, Week 1) was 0. The “Level of hair growth” value ([2]; 0.01%, Week 2) was 0, the “Level of hair growth” value ([2]; 0.01%, Week 3) was 0 and the “Level of hair growth” value ([2]; 0.01%, Week 4) was 0. For the same compound, the “Level of hair growth” value ([2]; 0.01%, Week 5) was 0, the “Level of hair growth” value ([2]; 0.01%, Week 6) was 0 and the “Level of hair growth” value ([2]; 0.1%, Week 1) was 0. The “Level of hair growth” value ([2]; 0.1%, Week 2) was 0, the “Level of hair growth” value ([2]; 0.1%, Week 3) was 5 and the “Level of hair growth” value ([2]; 0.1%, Week 4) was 5. For the same compound, the “Level of hair growth” value ([2]; 0.1%, Week 5) was 5, the “Level of hair growth” value ([2]; 0.1%, Week 6) was 5 and the “Level of hair growth” value ([2]; 1%, Week 1) was 0. For the same compound, the “Level of hair growth” value ([2]; 1%, Week 2) was 0*, the “Level of hair growth” value ([2]; 1%, Week 3) was 3* and the “Level of hair growth” value ([2]; 1%, Week 4) was 5. For the same compound, the “Level of hair growth” value ([2]; 1%, Week 5) was 5, the “Level of hair growth” value ([2]; 1%, Week 6) was 5 and the Promoting hair growth [2] was “effective in promoting hair growth”. For the same compound, the Promoting hair growth [3] was “effective in promoting hair growth”, the “Level of hair growth” value ([3]; Day 7) was 0 and the “Level of hair growth” value ([3]; Day 14) was 0. For the same compound, the “Level of hair growth” value ([3]; Day 19) was 1, the “Level of hair growth” value ([3]; Day 29) was 4 and the “Level of hair growth” value ([3]; Day 36) was 4. The “Skin irritation (redness)” value [4] was “failed to cause skin irritation”, the Right ear thickness [5, 10] was 24.0 ×0.01 mm and the Right ear thickness [5, 11] was 26.3 ×0.01 mm. It also gave a Right ear thickness [5, 12] of 26.7 ×0.01 mm and a Right ear thickness [5, 13] of 26.7 ×0.01 mm.

In the case of `Nc1cc(N2CCCCC2)nc(N)[n+]1[O-]` [Minoxidil, minoxidil], the “Level of hair growth” value ([2]; 5%, Week 1) is reported as 0, the “Level of hair growth” value ([2]; 5%, Week 2) is reported as 0 and the “Level of hair growth” value ([2]; 5%, Week 3) is reported as 2. The “Level of hair growth” value ([2]; 5%, Week 4) was 3, the “Level of hair growth” value ([2]; 5%, Week 5) was 4 and the “Level of hair growth” value ([2]; 5%, Week 6) was 4.

Reference: patent US20010027213A1, “Use of pyrethroid compounds to promote hair growth” (priority 1998, published 2001)
